In ChEMBL document CHEMBL4033775, “Natural-Products-Inspired Use of the gem-Dimethyl Group in Medicinal Chemistry” (J Med Chem, 2018):
pEC50, pIC50, pKi: −log10 of the molar value. Values belong to the compound of their own block, whether it stands above or below them.

Experiments:
1A9 = experiment: Cytotoxicity against human 1A9 cells; type: functional, cell-based
[1] = test system: Trypanosoma brucei brucei; experiment: Antitrypanosomal activity against Trypanosoma brucei brucei after 72 hrs by resazurin-based fluorescence assay; type: functional
[2] = molecular target: 5-hydroxytryptamine receptor 2C (Homo sapiens, UniProt P28335); experiment: Agonist activity at human 5-HT2C receptor expressed in mouse NIH/3T3 cells assessed as induction of IP3 formation after 0.5 hrs; type: functional, cell-based
Chain of 5-hydroxytryptamine receptor 2C (P28335 whole entry): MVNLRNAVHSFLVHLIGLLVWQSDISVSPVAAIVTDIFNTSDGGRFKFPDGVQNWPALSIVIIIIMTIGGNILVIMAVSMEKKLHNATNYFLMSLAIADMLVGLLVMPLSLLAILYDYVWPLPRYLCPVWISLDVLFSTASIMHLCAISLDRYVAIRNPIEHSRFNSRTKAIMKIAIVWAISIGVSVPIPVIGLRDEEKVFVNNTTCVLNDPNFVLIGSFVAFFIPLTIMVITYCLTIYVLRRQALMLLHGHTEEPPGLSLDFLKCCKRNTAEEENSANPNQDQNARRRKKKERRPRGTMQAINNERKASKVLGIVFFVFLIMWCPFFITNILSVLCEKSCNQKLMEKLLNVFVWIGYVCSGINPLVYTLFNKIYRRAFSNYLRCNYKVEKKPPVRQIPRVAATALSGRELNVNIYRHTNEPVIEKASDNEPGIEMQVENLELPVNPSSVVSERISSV

[3] = test system: Human immunodeficiency virus 1; experiment: Antiviral activity against HIV1 3B infected in human H9 cells after 4 days by ELISA; type: functional, cell-based; conditions: Human immunodeficiency virus 1, 3B, H9, 96 h
Prothrombin [4] = molecular target: Prothrombin (Homo sapiens, UniProt P00734); experiment: Inhibition of human plasma thrombin using chromogenix AB as substrate after 30 secs by UV-spectrophotometry
Prothrombin [5] = molecular target: Prothrombin (Bos taurus, UniProt P00735); experiment: Inhibition of bovine plasma thrombin using chromogenix AB as substrate after 30 secs by UV-spectrophotometry
HeLa = experiment: Cytotoxicity against human HeLa cells assessed as reduction in protein synthesis at 0.05 uM; type: functional
MCF7 = experiment: Cytotoxicity against human MCF7 cells assessed as reduction in protein synthesis; type: functional, cell-based
Matrilysin = molecular target: T1, Matrilysin (Homo sapiens, UniProt P09237); experiment: Inhibition of MMP7 (unknown origin) expressed in Escherichia coli BL21(DE3) using Mca-Pro-Leu-Gly-Leu-Dpa-Ala-Arg-NH2 as substrate after 20 to 30 mins by spectrofluorimetric analysis
T1 sequence (P09237 whole entry): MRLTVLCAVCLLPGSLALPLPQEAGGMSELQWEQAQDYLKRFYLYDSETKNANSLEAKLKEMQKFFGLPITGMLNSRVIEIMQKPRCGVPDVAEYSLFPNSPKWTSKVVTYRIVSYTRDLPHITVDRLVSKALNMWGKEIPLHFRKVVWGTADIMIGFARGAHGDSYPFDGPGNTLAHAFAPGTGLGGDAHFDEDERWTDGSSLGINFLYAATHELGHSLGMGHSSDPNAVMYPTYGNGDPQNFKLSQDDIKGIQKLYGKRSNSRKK

Rattus norvegicus [6] = experiment: Anti-hypertensive activity in conscious spontaneously hypertensive Okamoto rat assessed as reduction in systolic blood pressure at 1 mg/kg, po measured up to 6 hrs post dose relative to control; type: functional; set-up: scale not given: the % may be the effect or the level left
Rattus norvegicus [7] = experiment: Anti-hypertensive activity in conscious spontaneously hypertensive Okamoto rat assessed as reduction in systolic blood pressure at 0.1 mg/kg, po measured up to 6 hrs post dose relative to control; type: functional; set-up: scale not given: the % may be the effect or the level left
Rattus norvegicus [8] = experiment: Anti-hypertensive activity in conscious spontaneously hypertensive Okamoto rat assessed as reduction in systolic blood pressure at 0.3 mg/kg, po measured up to 6 hrs post dose relative to control; type: functional; set-up: scale not given: the % may be the effect or the level left
[9] = molecular target: Retinoic acid receptor RXR-gamma (Homo sapiens, UniProt P48443); experiment: Agonist activity at RXRgamma (unknown origin)
Chain of Retinoic acid receptor RXR-gamma (P48443 whole entry): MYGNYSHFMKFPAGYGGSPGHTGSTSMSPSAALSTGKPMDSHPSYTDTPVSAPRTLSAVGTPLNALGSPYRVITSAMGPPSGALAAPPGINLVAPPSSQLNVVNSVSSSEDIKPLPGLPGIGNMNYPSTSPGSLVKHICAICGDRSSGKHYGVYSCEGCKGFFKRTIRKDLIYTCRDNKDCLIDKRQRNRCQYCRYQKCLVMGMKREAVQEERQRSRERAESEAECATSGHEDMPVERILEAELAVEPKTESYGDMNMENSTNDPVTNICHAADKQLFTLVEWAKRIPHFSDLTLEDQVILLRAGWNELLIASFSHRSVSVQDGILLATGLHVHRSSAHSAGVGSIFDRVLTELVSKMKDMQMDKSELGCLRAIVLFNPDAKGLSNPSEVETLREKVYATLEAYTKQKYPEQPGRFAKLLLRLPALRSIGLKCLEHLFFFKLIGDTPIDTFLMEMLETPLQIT

[10] = molecular target: Retinoic acid receptor RXR-beta (Homo sapiens, UniProt P28702); experiment: Agonist activity at RXRbeta (unknown origin)
Chain of Retinoic acid receptor RXR-beta (P28702 whole entry): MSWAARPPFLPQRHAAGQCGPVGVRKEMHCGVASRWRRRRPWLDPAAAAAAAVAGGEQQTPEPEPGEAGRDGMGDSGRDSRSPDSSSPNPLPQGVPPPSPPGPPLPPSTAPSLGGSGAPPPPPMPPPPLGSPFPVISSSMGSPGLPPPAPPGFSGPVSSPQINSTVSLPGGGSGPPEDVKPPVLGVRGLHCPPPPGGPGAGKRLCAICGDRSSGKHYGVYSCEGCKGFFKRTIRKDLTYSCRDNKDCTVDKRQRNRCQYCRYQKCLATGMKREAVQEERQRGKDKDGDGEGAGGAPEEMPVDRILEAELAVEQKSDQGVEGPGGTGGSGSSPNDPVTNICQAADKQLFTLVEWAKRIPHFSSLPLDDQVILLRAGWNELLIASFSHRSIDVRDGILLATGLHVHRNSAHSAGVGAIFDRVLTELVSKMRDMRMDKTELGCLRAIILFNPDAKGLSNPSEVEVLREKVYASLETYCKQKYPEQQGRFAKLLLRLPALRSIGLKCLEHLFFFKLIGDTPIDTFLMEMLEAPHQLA

[11] = molecular target: Retinoic acid receptor beta (Homo sapiens, UniProt P10826); experiment: Agonist activity at RARbeta (unknown origin)
Chain of Retinoic acid receptor beta (P10826 whole entry): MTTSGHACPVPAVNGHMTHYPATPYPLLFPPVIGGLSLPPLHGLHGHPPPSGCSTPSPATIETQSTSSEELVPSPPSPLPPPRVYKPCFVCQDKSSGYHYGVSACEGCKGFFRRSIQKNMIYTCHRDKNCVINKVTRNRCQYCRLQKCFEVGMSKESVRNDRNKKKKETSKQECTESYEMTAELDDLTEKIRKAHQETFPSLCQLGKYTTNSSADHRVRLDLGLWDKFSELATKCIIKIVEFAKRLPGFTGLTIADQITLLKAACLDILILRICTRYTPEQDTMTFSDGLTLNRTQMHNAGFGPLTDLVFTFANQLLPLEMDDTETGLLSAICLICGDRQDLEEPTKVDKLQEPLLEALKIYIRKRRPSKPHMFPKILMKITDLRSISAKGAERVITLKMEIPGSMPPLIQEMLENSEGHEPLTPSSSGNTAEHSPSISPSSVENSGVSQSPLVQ

[12] = molecular target: Retinoic acid receptor alpha (Homo sapiens, UniProt P10276); experiment: Agonist activity at RARaplha (unknown origin)
Chain of Retinoic acid receptor alpha (P10276 whole entry): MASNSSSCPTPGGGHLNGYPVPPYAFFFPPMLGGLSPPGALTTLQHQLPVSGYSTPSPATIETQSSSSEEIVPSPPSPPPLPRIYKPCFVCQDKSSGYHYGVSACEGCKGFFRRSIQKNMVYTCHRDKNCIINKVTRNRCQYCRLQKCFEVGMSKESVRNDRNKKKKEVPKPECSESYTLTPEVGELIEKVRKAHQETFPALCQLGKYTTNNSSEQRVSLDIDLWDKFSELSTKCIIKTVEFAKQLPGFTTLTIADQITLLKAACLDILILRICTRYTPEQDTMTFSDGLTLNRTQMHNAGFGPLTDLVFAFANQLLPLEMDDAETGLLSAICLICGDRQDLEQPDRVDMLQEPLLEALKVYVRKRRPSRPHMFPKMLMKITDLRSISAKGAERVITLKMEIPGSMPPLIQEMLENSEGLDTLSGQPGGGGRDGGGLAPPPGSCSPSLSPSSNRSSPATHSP

[13] = molecular target: Retinoic acid receptor gamma (Homo sapiens, UniProt P13631); experiment: Agonist activity at RARgamma (unknown origin)
Chain of Retinoic acid receptor gamma (P13631 whole entry): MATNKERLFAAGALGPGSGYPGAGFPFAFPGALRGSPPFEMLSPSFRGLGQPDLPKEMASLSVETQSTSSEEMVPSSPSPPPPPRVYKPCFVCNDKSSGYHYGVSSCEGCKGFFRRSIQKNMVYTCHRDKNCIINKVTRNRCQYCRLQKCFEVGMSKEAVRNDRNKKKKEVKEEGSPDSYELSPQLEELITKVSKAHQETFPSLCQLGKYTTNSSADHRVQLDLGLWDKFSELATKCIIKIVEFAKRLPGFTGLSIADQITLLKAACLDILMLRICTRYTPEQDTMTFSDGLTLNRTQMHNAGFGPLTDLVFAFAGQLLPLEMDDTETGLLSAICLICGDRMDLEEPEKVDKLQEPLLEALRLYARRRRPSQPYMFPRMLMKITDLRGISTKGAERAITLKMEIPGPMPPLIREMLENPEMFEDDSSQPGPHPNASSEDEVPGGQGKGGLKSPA

[14] = molecular target: 5-hydroxytryptamine receptor 2A (Homo sapiens, UniProt P28223)
Chain of 5-hydroxytryptamine receptor 2A (P28223 whole entry): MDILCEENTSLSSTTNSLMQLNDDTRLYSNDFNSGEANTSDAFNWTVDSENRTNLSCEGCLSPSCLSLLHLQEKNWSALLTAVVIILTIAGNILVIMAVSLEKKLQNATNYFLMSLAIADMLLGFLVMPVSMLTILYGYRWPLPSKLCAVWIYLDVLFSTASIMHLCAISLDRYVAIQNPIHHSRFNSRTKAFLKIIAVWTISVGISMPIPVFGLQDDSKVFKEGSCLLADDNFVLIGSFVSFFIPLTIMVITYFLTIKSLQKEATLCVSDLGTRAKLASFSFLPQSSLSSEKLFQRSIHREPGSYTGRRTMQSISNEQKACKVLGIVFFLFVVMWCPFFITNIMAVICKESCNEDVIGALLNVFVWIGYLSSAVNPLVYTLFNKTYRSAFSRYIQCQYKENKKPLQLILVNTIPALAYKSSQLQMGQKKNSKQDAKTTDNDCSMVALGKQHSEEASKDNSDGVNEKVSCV

D(2) dopamine receptor = D(2) dopamine receptor (Homo sapiens, UniProt P14416); experiment: Displacement of [3H]methylspiperone from human D2 receptor expressed in HEK cells; type: cell-based
Chain of D(2) dopamine receptor (P14416 whole entry): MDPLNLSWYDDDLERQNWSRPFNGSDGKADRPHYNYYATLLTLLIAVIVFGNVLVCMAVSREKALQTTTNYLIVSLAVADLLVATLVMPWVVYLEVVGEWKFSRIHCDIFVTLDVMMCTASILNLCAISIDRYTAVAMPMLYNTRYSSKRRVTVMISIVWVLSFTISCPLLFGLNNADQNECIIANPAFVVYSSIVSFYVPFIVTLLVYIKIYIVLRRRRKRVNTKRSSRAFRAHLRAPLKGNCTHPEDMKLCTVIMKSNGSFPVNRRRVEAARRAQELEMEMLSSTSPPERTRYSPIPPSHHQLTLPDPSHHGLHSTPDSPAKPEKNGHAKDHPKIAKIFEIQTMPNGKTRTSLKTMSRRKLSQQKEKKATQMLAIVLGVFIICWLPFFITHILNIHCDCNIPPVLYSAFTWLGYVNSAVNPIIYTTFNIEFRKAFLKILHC

A549 = experiment: Cytotoxicity against human A549 cells; type: functional, cell-based
Homo sapiens = organism: Homo sapiens; experiment: Antagonist activity at nAChR (unknown origin) relative to (+/-)-mecamylamine
[15] = Inhibition of bacterial DNA gyrase subunit B; set-up: species or system Bacteria
[16] = test system: Human immunodeficiency virus 1; experiment: Antiviral activity against HIV1; type: functional

Structure (SMILES): CC(=O)O[C@H]1C(=O)[C@@]2(C)[C@H]([C@H](OC(=O)c3ccccc3)[C@]3(O)C[C@H](OC(=O)[C@H](O)[C@@H](NC(=O)c4ccccc4)c4ccccc4)C(C)=C1C3(C)C)[C@]1(OC(C)=O)CO[C@@H]1C[C@@H]2O [PACLITAXEL]
pIC50 (1A9): 8.43

Structure (SMILES): O=C(Nc1ccc2c(c1)B(O)OC2)c1ccc(F)cc1C(F)(F)F
pIC50 [1]: 6.74

Structure (SMILES): COc1ccc2c(c1)-c1c(cnn1C[C@H](C)N)C2
pKi [2]: 8.60

Structure (SMILES): CC(=O)O[C@@H]1[C@H](OC(=O)CC(C)C)c2c(ccc3ccc(=O)oc23)OC1(C)C [SUKSDORFIN]
pIC50 [3]: 5.59

pKi (Prothrombin [4]): 7.52
pKi (Prothrombin [5]): 7.30
Structure (SMILES): CC1(C)CNc2c(cccc2S(=O)(=O)N[C@@H](CCCNC(=N)N)C(=O)N2CCC(CCO)CC2)C1

Structure (SMILES): COC(=O)C[C@](O)(CCCC(C)(C)O)C(=O)O[C@@H]1C(OC)=C[C@]23CCCN2CCc2cc4c(cc2[C@H]13)OCO4 [OMACETAXINE MEPESUCCINATE]
inhibition at 0.05 µM (HeLa): 50%
pIC50 (MCF7): 9.06

pIC50 (Matrilysin): 5.69
Structure (SMILES): COc1ccc(S(=O)(=O)N2CCSCC2C(=O)NO)cc1 (stereo unspecified)

Structure (SMILES): COc1ccc2c(c1)-c1c(cnn1C[C@H](C)N)C2(C)C
pKi [2]: 8.60

Structure (SMILES): CC1(C)Oc2ccc(C#N)cc2C(N2CCCC2=O)C1O (racemic) [CROMAKALIM]
Activity (Rattus norvegicus [6]): 47%
Activity (Rattus norvegicus [7]): 13%
Activity (Rattus norvegicus [8]): 39%

pEC50 [9]: 5.59
pEC50 [10]: 5.62
pEC50 [11]: < 5.00
pEC50 [12]: < 5.00
pEC50 [13]: < 5.00
Structure (SMILES): C=C(c1ccc(C(=O)O)cc1)c1cc2c(cc1C)CCCC2(C)C

pKi (Prothrombin [5]): 7.30
Structure (SMILES): C[C@H]1CNc2c(cccc2S(=O)(=O)N[C@@H](CCCNC(=N)N)C(=O)N2CCC(CCO)CC2)C1

pKi [14]: 5.44
pKi (D(2) dopamine receptor): 5.36
Structure (SMILES): CC1(C)CC(=O)N(CCCCN2CCN(c3ncccn3)CC2)C(=O)C1 [GEPIRONE]

Structure (SMILES): C/C(=C\c1csc(C)n1)[C@@H]1C[C@@H]2O[C@]2(C)CCC[C@H](C)[C@H](O)[C@@H](C)C(=O)C(C)(C)[C@@H](O)CC(=O)O1 [PATUPILONE]
pIC50 (1A9): 10.22

Structure (SMILES): C/C(=C\c1csc(C)n1)[C@@H]1C[C@@H]2O[C@]2(C)CCC[C@H](C)[C@H](O)[C@@H](C)C(=O)C(C)(C)[C@@H](O)CC(=O)N1 [IXABEPILONE]
pIC50 (1A9): 8.18

pKi (Prothrombin [5]): 6.30
Structure (SMILES): N=C(N)NCCC[C@H](NS(=O)(=O)c1cccc2c1NCCC2)C(=O)N1CCC(CCO)CC1

Structure (SMILES): CO[C@H]1C(=O)[C@]2(C)[C@@H](OC)C[C@H]3OC[C@@]3(OC(C)=O)[C@H]2[C@H](OC(=O)c2ccccc2)[C@]2(O)C[C@H](OC(=O)[C@H](O)[C@@H](NC(=O)OC(C)(C)C)c3ccccc3)C(C)=C1C2(C)C [CABAZITAXEL]
pIC50 (A549): 8.83

fold change (FC) (Homo sapiens): 1.4
Structure (SMILES): CN[C@]1(C)[C@H]2CC[C@@H](C2)C1(C)C

Structure (SMILES): CC1(C)Oc2ccc([N+](=O)[O-])cc2[C@@H](N2CCCC2=O)[C@@H]1O
Activity (Rattus norvegicus [6]): 63%
Activity (Rattus norvegicus [8]): 27%

pIC50 [15]: 7.10
Structure (SMILES): CO[C@@H]1[C@@H](OC(N)=O)[C@@H](O)[C@H](Oc2ccc3c(O)c(NC(=O)c4ccc(O)c(CC=C(C)C)c4)c(=O)oc3c2C)OC1(C)C [NOVOBIOCIN]

Structure (SMILES): CCCc1cc(=O)oc2c3c(c4c(c12)OC(C)(C)C=C4)O[C@H](C)[C@@H](C)[C@@H]3O [CALANOLIDE A]
pEC50 [16]: 8.55

Structure (SMILES): CO[C@@H]1[C@@H](OC(=O)c2ccc(C)[nH]2)[C@@H](O)[C@H](Oc2ccc3c(O)c(NC(=O)c4ccc(O)c(CC=C(C)C)c4)c(=O)oc3c2Cl)OC1(C)C [CHLOROBIOCIN]
pIC50 [15]: 7.52
